According to US20110128610A1, “PHENOLIC CONFIGURATIONALLY LOCKED POLYENE BULK SINGLE CRYSTALS, CRYSTALLINE THIN FILMS AND WAVEGUIDES FOR ELECTRO-OPTICS AND THZ-WAVE APPLICATIONS” (priority 2008, published 2011):
“And” between values parts separate entries of the source, which are not always exact repeats. Identical values can stand only once. Like-named read-outs stand apart in the source and are kept apart here. Values belong to the compound of their own block, whether it stands above or below them.

How the values were obtained:
[1] = comparison crystals; cited from earlier work
[2] = comparison crystals from literature [13], [11, 18, 12]; cited from earlier work
[3] = comparison crystals from literature; cited from earlier work
[4] = Solubility in water; type: physicochemical
[5] = Solubility of OH1 and comparison crystals in methanol and other organic solvents; type: physicochemical
Experimental: OH1 molecules are dissolved very well in acetone and acetonitrile, and relatively good in ethanol and methanol. We selected methanol as the solvent for growing the crystals because the solubility in acetone is too high and the solute yield on decreasing the temperature is the most efficient in methanol.
The solubility of OH1 in methanol as a function of temperature is shown in FIG. 25; the solid curve is according to the Van't Hoff equation with the solution enthalpy ΔH=29±2 kJ/mol and entropy change ΔS=[…].

[6] = Thermal stability by thermogravimetric analysis (thermal weight-loss temperature Ti); type: physicochemical; settings: TGA under nitrogen atmosphere, scan rate 10° C./min
Experimental: The thermal stability of the OH1 chromophore was investigated using thermogravimetric analysis (TGA) and differential scanning calorimetry (DSC) under nitrogen atmosphere (scan rate: 10° C./min). The melting temperature Tm is defined here as the peak position in the DSC scan. The thermal weight-loss temperature Ti estimated as the temperature at the intercept of the leading edge of the weight loss by the base line of the TGA scans. […] The high thermal stability of OH1 crystals is an advantage for applying a melt-based crystal growth that is difficult for the ionic salts, e.g. DAST that decomposes at the melting temperature.

Structure (SMILES): CN(C)c1ccc(C=Cc2cc[n+](C)cc2)cc1.Cc1ccc(S(=O)(=O)[O-])cc1 [DAST, 4′-dimethylamino-N-methyl-4-stilbazolium tosylate]
- solubility in water [1]: highly soluble
- solubility at 40° C. (g/100 g methanol) [2]: 3.73 g/100 g methanol
- thermal weight-loss temperature Ti [3]: 250 °C and 250/250 °C

Structure (SMILES): CN(C)c1ccc(C=CC2=CC(=C(C#N)C#N)CC(C)(C)C2)cc1 [DAT2]
- solubility in water [1]: insoluble
- solubility at 40° C. (g/100 g methanol) [2]: <0.01 g/100 g methanol
- thermal weight-loss temperature Ti [3]: 293 °C

- solubility in water [4]: insoluble
- Solubility in Acetone ([5]; 25° C.): 25.9 g/100 g solvent
- Solubility in Acetone ([5]; 40° C.): 41.8 g/100 g solvent
- Solubility in Acetonitrile ([5]; 25° C.): 4.32 g/100 g solvent
- Solubility in Acetonitrile ([5]; 40° C.): 5.3 g/100 g solvent
- Solubility in Ethanol ([5]; 25° C.): 2.34 g/100 g solvent
- Solubility in Ethanol ([5]; 40° C.): 2.5 g/100 g solvent
- Solubility in Methanol ([5]; methanol, 25° C.): 2.15 g/100 g solvent
- solubility at 40° C. (g/100 g methanol) ([5]; methanol, 40° C.): 3.74 g/100 g methanol
- Solubility in Methanol ([5]; methanol, 40° C. (Table 9)): 3.4 g/100 g solvent
- Solubility in Methylene chloride ([5]; 25° C.): 1.4 g/100 g solvent
- Solubility in Methylene chloride ([5]; 40° C.): 1.9 g/100 g solvent
Structure (SMILES): CC1(C)CC(/C=C/c2ccc(O)cc2)=CC(=C(C#N)C#N)C1 [OH1, 2-(3-(4-hydroxystyryl)-5,5-dimethylcyclohex-2-enylidene)malononitrile]

- thermal weight-loss temperature Ti [6]: 242/326 °C
Structure (SMILES): CC1CC(C=Cc2ccc(O)cc2)=CC(=C(C#N)C#N)C1 (stereo not shown) [OH2, 2-(3-(4-hydroxystyryl)-5-methylcyclohex-2-enylidene)malononitrile]
